Values quoted from earlier work as cited in US20220401378A1, “COMPOSITIONS COMPRISING FUNCTIONAL FRAGRANCES AND CANNABIS-DERIVED COMPOUNDS” (THIS WORKS PRODUCTS LIMITED, priority 2020, published 2022).

System: anxiety

Row | SMILES | effectiveness in reducing anxiety compared with trazodone hydrochloride
1 | C=C[C@](C)(O)CCC=C(C)C [R-(−)-linalool] | as effective as the trazodone hydrochloride in reducing anxiety
2 | C=C[C@@](C)(O)CCC=C(C)C [S-(+)-linalool] | as effective as the trazodone hydrochloride in reducing anxiety
